Laboratory results reported in patent publication US9828375B2, “4-position substituted pyrazolopyrimidine derivative, and use thereof in drug preparation” (Guangxi Wuzhou Pharmaceuticals (Group) Co., Ltd., priority 2012, dated 2017).

Tests used:
VEGFR2 = VEGFR2 (Homo sapiens, UniProt P35968); test: Kinase inhibition activity test, isotope labeling (γ-33P-ATP): VEGFR2; type: biochemical; details: for inhibition at 10 µM / Activity inhibition rate VEGFR2 (h): test compound at a concentration of 10 μM; for inhibition at 10 µM: read-out: Activity inhibition rate VEGFR2 (h); for IC50: ATP 90 μM, read-out: VEGFR2 IC50 value (inhibitory activity value)
Chain of VEGFR2 (P35968 20-1356): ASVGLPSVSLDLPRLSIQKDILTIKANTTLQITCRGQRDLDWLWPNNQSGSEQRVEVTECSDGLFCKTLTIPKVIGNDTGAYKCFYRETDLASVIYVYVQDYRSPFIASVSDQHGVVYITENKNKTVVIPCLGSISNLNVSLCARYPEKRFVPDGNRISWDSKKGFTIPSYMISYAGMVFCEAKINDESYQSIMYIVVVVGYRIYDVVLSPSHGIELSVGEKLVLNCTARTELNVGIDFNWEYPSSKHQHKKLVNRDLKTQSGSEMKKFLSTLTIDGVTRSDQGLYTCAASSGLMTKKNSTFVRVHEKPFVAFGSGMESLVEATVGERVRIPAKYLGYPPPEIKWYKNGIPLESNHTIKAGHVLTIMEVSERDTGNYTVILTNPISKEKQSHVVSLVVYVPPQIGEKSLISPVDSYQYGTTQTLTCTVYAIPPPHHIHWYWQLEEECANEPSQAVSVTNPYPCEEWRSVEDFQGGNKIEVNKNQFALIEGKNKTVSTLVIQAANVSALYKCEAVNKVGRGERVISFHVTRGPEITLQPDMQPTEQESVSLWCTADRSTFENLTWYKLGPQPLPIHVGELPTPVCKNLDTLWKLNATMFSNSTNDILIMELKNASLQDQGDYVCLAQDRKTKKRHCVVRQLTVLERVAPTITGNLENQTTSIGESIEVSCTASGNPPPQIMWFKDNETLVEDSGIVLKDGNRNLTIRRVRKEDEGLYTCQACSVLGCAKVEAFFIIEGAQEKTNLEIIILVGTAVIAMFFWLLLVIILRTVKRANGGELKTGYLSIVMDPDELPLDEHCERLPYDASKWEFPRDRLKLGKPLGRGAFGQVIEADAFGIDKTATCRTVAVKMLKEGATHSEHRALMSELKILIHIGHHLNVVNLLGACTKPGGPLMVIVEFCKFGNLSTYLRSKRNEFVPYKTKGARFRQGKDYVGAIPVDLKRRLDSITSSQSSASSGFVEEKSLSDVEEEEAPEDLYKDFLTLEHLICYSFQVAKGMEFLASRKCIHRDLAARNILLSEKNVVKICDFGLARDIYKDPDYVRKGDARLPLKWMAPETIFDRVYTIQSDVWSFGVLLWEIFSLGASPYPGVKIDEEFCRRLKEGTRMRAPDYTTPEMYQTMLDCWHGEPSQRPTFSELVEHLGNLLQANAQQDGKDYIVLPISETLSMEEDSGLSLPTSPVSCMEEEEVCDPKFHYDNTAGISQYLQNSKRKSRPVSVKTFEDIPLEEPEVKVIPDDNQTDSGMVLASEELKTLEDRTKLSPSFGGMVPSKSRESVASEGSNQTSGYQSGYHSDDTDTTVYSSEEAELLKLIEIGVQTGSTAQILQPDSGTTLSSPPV
Experimental: (§1) The purpose of this experiment was to test the inhibitory activity of the compound of the invention for in vitro kinase with the isotope labeling method (the γ phosphate group on ATP was labeled). In this experiment, the in vitro activity inhibition of such kinases as FLT3, VEGFR2, FLT1, FLT4, RET, c-RAF, B-RAF, c-KIT, PDGFα, PDGFβ, FGFR2, FGFR1, EphA2, EphB2, SRC, ABL, ALK and Met was tested respectively. Staurosporine was reference molecule (or referred to as positive control). The kinase inhibition activity of the test compound was expressed by half-inhibitory concentration (IC50) or the kinase activity inhibition rate of the test compound at a concentration of 10 μM. The IC50 value could be obtained by calculating the kinase activity inhibition rate of the test compound at different concentrations.
(§2) 20 mM 3-(N-morpholinyl)propanesulfonic acid (MOPS); 1 mM ethylenediaminetetraacetic acid (EDTA), 0.01% Brij 35 (Brij-35), 5% glycerol, 0.1% mercaptoethanol, 1 mg/mL bovine serum albumin (BSA), 10 mM manganous dichloride solution (MnCl2), 0.1 mg/mL glutamic acid/tyrosine (4:1) polypeptide (poly(Glu, Tyr)4:1), 50 μM EAIYAAPFAKKK (substrate of FLT3), 0.33 mg/mL myelin basic protein (substrate of VEGFR2), 250 μM KKKSPGEYVNIEFG (substrate of FLT1(h)), 500 μM GGEEEEYFELVKKKK (substrate of FLT4(h)), 250 μM KKKSPGEYVNIEFG (substrate of RET), 0.66 mg/mL myelin basic protein (substrate of C-RAF), 250 μM GGMEDIYFEFMGGKKK (substrate of c-Kit), 250 μM GGMEDIYFEFMGGKKK (substrate of PDGFα), 250 μM KKKSPGEYVNIEFG (substrate of FGFR1), […] GGEEEEYFELVKKKK (substrate of SRC), 50 μM EAIYAAPFAKKK (substrate of ABL), 250 μM KKKSPGEYVNIEFG (substrate of ALK), 250 μM KKKSPGEYVNIEFG (substrate of Met(h)), 10 mM magnesium acetate and γ-^33 P-ATP solution, stop buffer (3% phosphate buffer), washing buffer (75 mM phosphate solution), methanol, Filtermat A membrane, FLT3, VEGFR2, FLT3, VEGFR2, FLT1, FLT4, RET, c-RAF, B-RAF, c-KIT, PDGFRα, PDGFRβ, FGFR2, FGFR1, EphA2, EphB2, SRC, ABL, ALK, Met and other kinases, and the test compounds.
(§3) Buffers (8 mM MOPS with pH value of 7.0, 0.2 mM EDTA and 10 mM MnCl2), (5-10 mU) kinases to be tested (FLT3, VEGFR2, FLT1, FLT4, RET, c-RAF, B-RAF, c-KIT, PDGFRα, PDGFRβ, FGFR2, FGFR1, EphA2, EphB2, SRC, ABL, ALK and Met), substrates of kinases to be tested (refer to experimental materials), 10 mM magnesium acetate and γ-^33 P-ATP solution, and test compounds at different concentrations were added to a reaction tube orderly. […] Reaction was terminated with 5 μL 3% phosphate buffer finally, and 10 μL reaction solution was titrated to the Filtermat A membrane; solution was washed for 3 times with 75 mM phosphate solution with each time lasting 5 minutes, and then washed once with methanol. Finally, the Filtermat A membrane was dried, and scintillation counting was performed on the membrane, with scintillation count reflecting the phosphorylation degree of the substrates, so that the activity inhibition of kinase could be characterized.

FGFR2 = FGFR2 (Homo sapiens, UniProt P21802); test: Kinase inhibition activity test, isotope labeling: FGFR2; type: biochemical; details: for inhibition at 10 µM / Activity inhibition rate FGFR2 (h): test compound at a concentration of 10 μM; for inhibition at 10 µM: read-out: Activity inhibition rate FGFR2 (h)
Chain of FGFR2 (P21802 22-821): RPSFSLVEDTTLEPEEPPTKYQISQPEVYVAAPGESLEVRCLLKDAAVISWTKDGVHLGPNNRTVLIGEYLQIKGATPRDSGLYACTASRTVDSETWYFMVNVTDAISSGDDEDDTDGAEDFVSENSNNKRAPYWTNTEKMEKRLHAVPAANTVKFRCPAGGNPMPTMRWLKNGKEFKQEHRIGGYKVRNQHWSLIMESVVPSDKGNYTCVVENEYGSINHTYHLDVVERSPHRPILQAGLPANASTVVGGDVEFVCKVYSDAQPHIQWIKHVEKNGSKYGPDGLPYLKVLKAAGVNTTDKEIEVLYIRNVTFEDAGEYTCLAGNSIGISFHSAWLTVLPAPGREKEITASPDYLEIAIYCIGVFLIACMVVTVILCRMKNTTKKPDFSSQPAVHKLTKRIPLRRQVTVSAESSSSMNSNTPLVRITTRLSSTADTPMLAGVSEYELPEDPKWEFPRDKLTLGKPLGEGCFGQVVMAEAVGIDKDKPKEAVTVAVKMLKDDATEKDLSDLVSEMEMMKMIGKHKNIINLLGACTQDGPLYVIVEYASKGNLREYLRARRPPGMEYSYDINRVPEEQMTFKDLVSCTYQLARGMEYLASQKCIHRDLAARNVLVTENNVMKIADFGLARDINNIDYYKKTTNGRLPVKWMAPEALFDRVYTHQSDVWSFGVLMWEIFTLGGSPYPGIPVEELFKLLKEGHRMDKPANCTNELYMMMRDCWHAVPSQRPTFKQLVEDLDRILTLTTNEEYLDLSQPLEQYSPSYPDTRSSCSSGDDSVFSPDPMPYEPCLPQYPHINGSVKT
Experimental: as §1, §2, §3

[1] = tested on: human leukemia cell line MV4-11; test: In vitro tumor cell proliferation inhibition (MTT): MV4-11; type: cell-based
Description: (§4) The purpose of the experiment was to test the inhibition activity of the compounds of the invention for in vitro human tumor cell proliferation by the methyl thiazolyl tetrazolium (MTT) colorimetry.
(§5) Main reagents: RPMI-1640, fetal bovine serum, pancreatin, etc. were purchased from Gibco BRL Company (Invitrogen Corporation, USA) and IMDM medium that was purchased from American Type Culture Collection (ATCC). Methyl thiazolyl tetrazolium (MTT) and dimethyl sulfoxide (DMSO) were products from Sigma Company (USA). Pyrazolopyrimidine derivatives were composed by the inventor. During in vitro experiment, 100% DMSO was prepared into 10 mM storage solution, the solution was stored in a refrigerator at −20° C. for future use, and was diluted to the required concentration with complete culture solution before use.
(§6) Cell line and culture: Human leukemia cell line MV4-11, Jurkat, K562, human thyrophyma cell line TT, human gastric carcinoma cell line MKN-45, human malignant melanoma cell lines A375 and A875, human pancreatic carcinoma cell line panc-1, human cervical carcinoma cell line HELA, human colorectal carcinoma cell line HCT116, etc. were purchased from American type culture collection and were preserved by this laboratory. All leukemia cell lines (except MV4-11), gastric carcinoma cell lines and thyrophyma cell lines were cultured in RPMI-1640 complete medium containing 10% fetal bovine serum, 100 U/mL penicillin and 100 μg/mL streptomycin at 37° C. in 5% CO2. The remaining cell lines were cultured in DMEM complete medium containing 10% fetal bovine serum (containing 20% MV4-11 cell), 100 U/mL penicillin and 100 µg/mL streptomycin at 37° C. in 5% CO2.
(§7) Cell suspension with cell concentration of 1-2×10^4/mL was adjusted with the complete cell medium and inoculated in a 96-well plate, with each well filled with 200 μl cell suspension that was cultured overnight. On the next day, supernatant was sucked and abandoned (supernatant was sucked upon centrifugation of suspension cells), and then cells were processed with test compounds at gradient concentrations respectively. Meanwhile, a negative control group free from drug and a solvent control group with equal volume were set, and the DMSO concentration was 0.1%. Each dose group was provided with three wells and cultured at 37° C. in 5% CO2. After 72 hours, 20 μl 5 mg/mL MTT reagent was added to each well, and cultured for another 2 to 4 hours, the supernatant was abandoned; 150 μL DMSO was added to each well again, vibrated and mixed evenly for 15 minutes; the absorbance (A) values (proportional to living cell amount) were determined with a microplate reader (λ=570 nm) and averaged. […] Experiment was repeated for 3 times at least. Experimental data were expressed with means, data statistics were tested by t, and P<0.05 means that difference has a statistical significance. The cell proliferation inhibition effects of all compounds as follows are expressed by IC50 or inhibition rate.

[2] = tested on: human pancreatic carcinoma cell line panc-1; test: In vitro tumor cell proliferation inhibition (MTT): panc-1; type: cell-based
Description: as §4, §5, §6, §7

[3] = tested on: human leukemia cell line Jurkat; test: In vitro tumor cell proliferation inhibition (MTT): Jurkat; type: cell-based; details: 72 hours
Description: as §4, §5, §6, §7

[4] = tested on: human leukemia cell line K562; test: In vitro tumor cell proliferation inhibition (MTT): K562; type: cell-based
Description: as §4, §5, §6, §7

Row | Molecule | inhibition at 10 µM (VEGFR2) [%] | inhibition at 10 µM (FGFR2) [%] | IC50 ([1]; Homo sapiens, MV4-11, 72 h) [µM] | IC50 ([2]; Homo sapiens, PANC-1, 72 hours) [µM] | IC50 ([3]; Homo sapiens, Jurkat) [µM] | IC50 ([4]; Homo sapiens, K562, 72 hours) [µM] | Activity inhibition rate VEGFR2 (h) (VEGFR2) [%] | Activity inhibition rate FGFR2 (h) (FGFR2) [%] | IC50 ([1]; 72 hours) [µM] | IC50 ([2]; 72 hours) [µM] | IC50 [3] [µM] | IC50 ([4]; 72 hours) [µM] | Activity inhibition rate FGFR2 (h) (FGFR2; 10 µM) [%] | IC50 (VEGFR2) [µM] | Activity inhibition rate VEGFR2 (h) (VEGFR2; 10 µM) [%] | IC50 (FGFR2; ATP 90 μM, read-out: FGFR2 IC50 value (inhibitory activity value)) [µM]
1 | CC(C)n1ncc2c(Oc3ccc(NC(=O)Nc4cc(C(C)(C)C)on4)cc3)ncnc21 [5a-4, 1-(5-tert-butylisoxazol-3-yl)-3-(4-(1-isopropyl-(1H-pyrazolopyrimidine-4-yl)oxy)phenyl)urea] | > 90 | > 30 | < 1 | < 50 | < 50 | < 50 | – | – | – | – | – | – | – | – | – | –
2 | Cc1cc(C)c(NC(=O)Nc2ccc(NC(=O)N3C=NC=C4NNC=C43)cc2)c(C)c1 [4b-7, 1-(4-(1H-pyrazolopyrimidine-4-amido)phenyl)-3-(2,4,6-trimethylphenyl)urea] | 92 | 69 | 0.667 | < 50 | < 50 | < 50 | – | – | – | – | – | – | – | – | – | –
3 | O=C(Nc1ccc(C(F)(F)F)cc1)Nc1ccc(Oc2ncnc3[nH]ncc23)c(F)c1 [4a-9, 1-(4-((1H-pyrazolopyrimidine-4-yl)oxy)-3-fluorophenyl)-3-(4-(trifluoromethyl)phenyl)urea] | – | – | – | – | – | – | 100 | 18 | 0.043 | 2.31 | < 50 | 2.7 | – | 0.019 | – | –
4 | C[C@H](NC(=O)Nc1ccc(Nc2ncnc3[nH]ncc23)cc1)c1ccccc1 [4b-4] | – | – | – | – | – | – | – | – | 2.05 | < 50 | < 50 | < 50 | 32 | – | 94 | –
5 | O=C(Nc1ccc(Oc2ncnc3[nH]ncc23)cc1)Nc1cc(C(F)(F)F)cc(C(F)(F)F)c1 [4a-12, 1-(4-((1H-pyrazolopyrimidine-4-yl)oxy)phenyl)-3-(3,5-bis(trifluoromethyl)phenyl)urea] | – | – | – | – | – | – | 100 | 71 | 0.017 | < 50 | < 50 | 9.12 | – | 0.024 | – | –
6 | O=C(Nc1ccc(Oc2ncnc3[nH]ncc23)cc1)Nc1cccc(C(F)(F)F)c1 [4a-6] | 100 | 56 | 0.004 | < 50 | 4.28 | < 50 | – | – | – | – | – | – | – | 0.011 | – | < 10
7 | 1-(4-((1H-pyrazolopyrimidine-4-yl)oxy)-3-fluorophenyl)-3-(3-trifluoromethoxy)phenyl)urea [4a-8] | – | – | – | – | – | – | 100 | 6 | 0.053 | 4.65 | < 50 | < 50 | – | 0.029 | – | –

The next lines start with results.

Row | inhibition at 10 µM (VEGFR2) [%] | inhibition at 10 µM (FGFR2) [%] | IC50 ([1]; Homo sapiens, MV4-11, 72 h) [µM] | IC50 ([2]; Homo sapiens, PANC-1, 72 hours) [µM] | IC50 ([3]; Homo sapiens, Jurkat) [µM] | IC50 ([4]; Homo sapiens, K562, 72 hours) [µM] | Activity inhibition rate VEGFR2 (h) (VEGFR2) [%] | Activity inhibition rate FGFR2 (h) (FGFR2) [%] | IC50 ([1]; 72 hours) [µM] | IC50 ([2]; 72 hours) [µM] | IC50 [3] [µM] | IC50 ([4]; 72 hours) [µM] | Activity inhibition rate FGFR2 (h) (FGFR2; 10 µM) [%] | IC50 (VEGFR2) [µM] | Activity inhibition rate VEGFR2 (h) (VEGFR2; 10 µM) [%] | Molecule | IC50 (FGFR2; ATP 90 μM, read-out: FGFR2 IC50 value (inhibitory activity value)) [µM]
8 | – | – | – | – | – | – | 100 | >50 | < 1 | < 50 | < 50 | < 50 | – | – | – | CC(C)(C)c1cc(NC(=O)Nc2ccc(Sc3ncnc4[nH]ncc34)cc2)no1 [4c-3, 1-(4-(1H-pyrazolopyrimidine-4-sulfydryl)phenyl)-3-(5-tert-butylisoxazol-3-yl)urea] | –
9 | 88 | – | – | < 50 | < 50 | < 50 | – | – | 8.03 | – | – | – | 66 | – | – | C[C@@H](NC(=O)Nc1ccc(Nc2ncnc3[nH]ncc23)cc1)c1ccccc1 [4b-2, (R)-1-(4-(1H-pyrazolopyrimidine-4-amido)phenyl)-3-(1-phenethyl)urea] | –
10 | – | – | – | – | – | – | 95 | 22 | 0.112 | < 50 | 3 to 10 | < 50 | – | – | – | C[C@H](NC(=O)Nc1ccc(Oc2ncnc3[nH]ncc23)cc1)c1ccccc1 [4a-18, (S)-1-(4-((1H-pyrazolopyrimidine-4-yl)oxy)phenyl)-3-(1-phenethyl)urea] | –
11 | 100 | > 50 | 0.0012 | < 50 | 3 to 10 | 3 to 10 | – | – | – | – | – | – | – | – | – | O=C(Nc1ccc(Oc2ncnc3[nH]ncc23)cc1)Nc1cc(C(F)(F)F)on1 [4a-28] | –
12 | 100 | 22 | 0.005 | < 50 | < 50 | < 50 | – | – | – | – | – | – | – | 0.03 | – | O=C(Nc1ccc(Oc2ncnc3[nH]ncc23)cc1)Nc1ccc(C(F)(F)F)cc1 [4a-1] | –
13 | 96 | 45 | 1.65 | < 50 | < 50 | < 50 | – | – | – | – | – | – | – | – | – | COc1cccc(NC(=O)Nc2ccc(Nc3ncnc4[nH]ncc34)cc2)c1 [4b-3] | –
14 | – | – | – | – | – | – | 64 | 19 | 0.363 | < 50 | < 50 | < 50 | – | – | – | 1-(4-((1H-pyrazolopyrimidine-4-yl)oxy)phenyl)-3-(methylcyclohexyl)urea [4a-20] | –
